Measurements published in PubChem BioAssay AID248 (DTP/NCI, 2004).
Where “and” joins values, the source holds several entries; their conditions need not be identical. Identical values can stand only once. Toxic doses and inconclusive results are not listed. Rule as the data show it: active = T/C of 150% or more; inactive = T/C below 125%.

Test system: L1210 leukemia ip in BDF1 mice, survival T/C
Test: NCI In Vivo Anticancer Drug Screen. Data for tumor model L1210 Leukemia (intraperitoneal) in B6D2F1 (BDF1) mice
Settings: endpoint: mean survival time, higher = longer survival
Outline: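 In this screen, tumor-bearing mice given compound are compared to those given vehicle, and their survival values are reported as a treated-to-control quotient.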

[1] = dose: 50.0 mg/kg/injection, schedule: Q01DX001 (ip), vehicle: carboxymethylcellulose (CMC)
[2] = dose: 100.0 mg/kg/injection, schedule: Q01DX001 (ip), vehicle: carboxymethylcellulose (CMC)
[3] = dose: 200.0 mg/kg/injection, schedule: Q01DX001 (ip), vehicle: carboxymethylcellulose (CMC)
[4] = dose: 400.0 mg/kg/injection, schedule: Q01DX001 (ip), vehicle: carboxymethylcellulose (CMC)
[5] = dose: 100.0 mg/kg/injection, schedule: Q01DX001 (ip), vehicle: saline
[6] = dose: 200.0 mg/kg/injection, schedule: Q01DX001 (ip), vehicle: saline
[7] = dose: 400.0 mg/kg/injection, schedule: Q01DX001 (ip), vehicle: saline
[8] = dose: 100.0 mg/kg/injection, schedule: Q01DX001 (ip), vehicle: Klucel (hydroxypropylcellulose) (HPC)
[9] = dose: 100.0 mg/kg/injection, schedule: Q04DX003 (ip), vehicle: Klucel (hydroxypropylcellulose) (HPC)
[10] = dose: 200.0 mg/kg/injection, schedule: Q04DX003 (ip), vehicle: Klucel (hydroxypropylcellulose) (HPC)
[11] = dose: 400.0 mg/kg/injection, schedule: Q04DX003 (ip), vehicle: Klucel (hydroxypropylcellulose) (HPC)
[12] = dose: 100.0 mg/kg/injection, schedule: Q01DX009 (ip), vehicle: Klucel (hydroxypropylcellulose) (HPC)
[13] = dose: 100.0 mg/kg/injection, schedule: Q04DX002 (ip), vehicle: Klucel (hydroxypropylcellulose) (HPC)
[14] = dose: 200.0 mg/kg/injection, schedule: Q01DX009 (ip), vehicle: Klucel (hydroxypropylcellulose) (HPC)
[15] = dose: 200.0 mg/kg/injection, schedule: Q04DX002 (ip), vehicle: Klucel (hydroxypropylcellulose) (HPC)
[16] = dose: 400.0 mg/kg/injection, schedule: Q01DX009 (ip), vehicle: Klucel (hydroxypropylcellulose) (HPC)
[17] = dose: 400.0 mg/kg/injection, schedule: Q04DX002 (ip), vehicle: Klucel (hydroxypropylcellulose) (HPC)

Measured: T/C

O=[N+]([O-])c1ccc(/C=N/Nc2nnc(N/N=C/c3ccc([N+](=O)[O-])cc3)c3ccccc23)cc1
inactive: [1] 93 % of control | [2] 101 % of control | [3] 93 % of control | [4] 98 % of control

COC1CCC2CCN(C)C(Cc3ccc(Oc4ccc(CC5C6CC(OC)CCC6CCN5C)cc4)cc3)C2C1 (configuration not stated)
inactive: dose: 0.39 mg/kg/injection, schedule: Q01DX009 (ip), vehicle: saline with Tween-80 96 % of control | dose: 0.78 mg/kg/injection, schedule: Q01DX009 (ip), vehicle: saline with Tween-80 96 % of control and 108 % of control | dose: 1.56 mg/kg/injection, schedule: Q01DX009 (ip), vehicle: saline with Tween-80 108 % of control | dose: 3.13 mg/kg/injection, schedule: Q01DX009 (ip), vehicle: saline with Tween-80 102 % of control

CCOC(=O)C(C)(CCC#N)C(=O)OCC
inactive: [5] 95 % of control | dose: 100.0 mg/kg/injection, schedule: Q04DX002 (ip), vehicle: saline 101 % of control | [6] 95 % of control | dose: 200.0 mg/kg/injection, schedule: Q04DX002 (ip), vehicle: saline 105 % of control | [7] 95 % of control | dose: 400.0 mg/kg/injection, schedule: Q04DX002 (ip), vehicle: saline 105 % of control

CC(=O)Nc1ccc(S(=O)(=O)NN)cc1
inactive: [1] 106 % of control | [2] 103 % of control | [3] 92 % of control | [4] 92 % of control

O=S(=O)(C1CC1c1ccccc1)N(c1ccccc1)c1ccccc1 (configuration not stated)
inactive: [8] 94 % of control | [9] 93 % of control | dose: 200.0 mg/kg/injection, schedule: Q01DX001 (ip), vehicle: Klucel (hydroxypropylcellulose) (HPC) 100 % of control | [10] 93 % of control | dose: 400.0 mg/kg/injection, schedule: Q01DX001 (ip), vehicle: Klucel (hydroxypropylcellulose) (HPC) 97 % of control | [11] 93 % of control

c1ccc(CNc2cnccn2)cc1
inactive: [5] 105 % of control | [6] 105 % of control

O=C1C(Cl)=CC(Cl)=C/C1=N/Cl
inactive: dose: 25.0 mg/kg/injection, schedule: Q01DX001 (ip), vehicle: Klucel (hydroxypropylcellulose) (HPC) 110 % of control | dose: 50.0 mg/kg/injection, schedule: Q01DX001 (ip), vehicle: Klucel (hydroxypropylcellulose) (HPC) 107 % of control | [8] 95 % of control and 100 % of control

CCCCCCC(C)CCCC (configuration not stated)
inactive: dose: 100.0 mg/kg/injection, schedule: Q01DX001 (ip), vehicle: saline with Tween-80 94 % of control | dose: 200.0 mg/kg/injection, schedule: Q01DX001 (ip), vehicle: saline with Tween-80 91 % of control | dose: 400.0 mg/kg/injection, schedule: Q01DX001 (ip), vehicle: saline with Tween-80 86 % of control

CCCCCCCCN(C)/N=N/c1nc[nH]c1C(N)=O
inactive: [12] 113 % of control

N#Cc1cc(Cl)cn1O
inactive: dose: 100.0 mg/kg/injection, schedule: Q04DX002 (ip), vehicle: other 91 % of control | dose: 200.0 mg/kg/injection, schedule: Q04DX002 (ip), vehicle: other 99 % of control

O=C(c1ccccc1)c1cc(=O)[nH]c(=O)[nH]1
inactive: dose: 47.5 mg/kg/injection, schedule: Q01DX001 (ip), vehicle: Klucel (hydroxypropylcellulose) (HPC) 100 % of control | dose: 95.0 mg/kg/injection, schedule: Q01DX001 (ip), vehicle: Klucel (hydroxypropylcellulose) (HPC) 102 % of control | dose: 190.0 mg/kg/injection, schedule: Q01DX001 (ip), vehicle: Klucel (hydroxypropylcellulose) (HPC) 98 % of control

O=C(NC(=S)Nc1ccccc1C(F)(F)F)c1ccccc1F
inactive: [12] 98 % of control and 103 % of control | [13] 105 % of control and 110 % of control | [9] 93 % of control | [14] 98 % of control and 111 % of control | [15] 105 % of control and 90 % of control | [10] 90 % of control | [16] 94 % of control and 108 % of control | [17] 94 % of control and 113 % of control | [11] 91 % of control

CCC1CN2CCc3cc(OC)c(OC)cc3C2CC1CC1c2cc(OC)c(OC)cc2CCN1C(=O)CNC(=O)OC(C)(C)C (configuration not stated)
inactive: [5] 97 % of control | [6] 101 % of control | [7] 109 % of control

CSc1n[nH]c(N)n1
inactive: dose: 100.0 mg/kg/injection, schedule: Q01DX009 (ip), vehicle: saline with Tween-80 92 % of control | dose: 200.0 mg/kg/injection, schedule: Q01DX009 (ip), vehicle: saline with Tween-80 92 % of control | dose: 400.0 mg/kg/injection, schedule: Q01DX009 (ip), vehicle: saline with Tween-80 92 % of control

COc1ccc2c(c1)C13CCCCC1C(C2)N(CC1(c2ccccc2)CC1)CC3 (configuration not stated)
inactive: [12] 98 % of control | [9] 96 % of control | [14] 90 % of control | [10] 93 % of control | [11] 101 % of control

CC12CCCCC1C1=C(CCCC1)CC2 (configuration not stated)
inactive: [1] 97 % of control | [2] 92 % of control | [3] 94 % of control | [4] 97 % of control

CCCCCCCCCC(=O)N/N=C/c1cccs1
inactive: [12] 101 % of control | [14] 101 % of control | [16] 89 % of control

c1ccc(-c2nc3ccccc3s2)cc1
inactive: dose: 100.0 mg/kg/injection, schedule: Q04DX002 (ip), vehicle: gum acacia 101 % of control | dose: 200.0 mg/kg/injection, schedule: Q04DX002 (ip), vehicle: gum acacia 111 % of control | dose: 400.0 mg/kg/injection, schedule: Q04DX002 (ip), vehicle: gum acacia 86 % of control

CCCCNC1=C(NC(=O)C(Cl)Cl)C(=O)c2ccccc2C1=O
inactive: dose: 2.5 mg/kg/injection, schedule: Q01DX009 (ip), vehicle: saline with Tween-80 103 % of control | dose: 5.0 mg/kg/injection, schedule: Q01DX009 (ip), vehicle: saline with Tween-80 101 % of control | dose: 5.0 mg/kg/injection, schedule: Q04DX003 (ip), vehicle: saline with Tween-80 100 % of control | dose: 10.0 mg/kg/injection, schedule: Q01DX009 (ip), vehicle: saline with Tween-80 98 % of control | dose: 10.0 mg/kg/injection, schedule: Q04DX003 (ip), vehicle: saline with Tween-80 97 % of control

O=C(Nc1ccccc1)Nc1ccc(C(=O)c2ccccc2)cc1
inactive: dose: 20.0 mg/kg/injection, schedule: Q01DX005 (ip), vehicle: saline with Tween-80 100 % of control | dose: 40.0 mg/kg/injection, schedule: Q01DX005 (ip), vehicle: saline with Tween-80 89 % of control | dose: 80.0 mg/kg/injection, schedule: Q01DX005 (ip), vehicle: saline with Tween-80 97 % of control | dose: 160.0 mg/kg/injection, schedule: Q01DX005 (ip), vehicle: saline with Tween-80 90 % of control | dose: 320.0 mg/kg/injection, schedule: Q01DX005 (ip), vehicle: saline with Tween-80 95 % of control

CC(C)(C)c1ccc(SC(=O)Nc2cccc(Cl)c2Cl)cc1
inactive: [12] 96 % of control | [13] 92 % of control | [14] 103 % of control | [15] 92 % of control | [16] 100 % of control | [17] 95 % of control

Cc1ccc(S(=O)(=O)NC(=O)NCCCS(C)=O)cc1 (configuration not stated)
inactive: dose: 100.0 mg/kg/injection, schedule: Q04DX003 (ip), vehicle: saline with Tween-80 100 % of control | dose: 200.0 mg/kg/injection, schedule: Q04DX003 (ip), vehicle: saline with Tween-80 102 % of control | dose: 400.0 mg/kg/injection, schedule: Q04DX003 (ip), vehicle: saline with Tween-80 100 % of control
